Data taken from the supplement of paper PMC10307832.

Experiments:
Assay in all cases: relative viability (nuclei count vs DMSO), 5 days (fraction); higher = more cells survive
[1] = compound: CNC(=O)c1cc(Oc2ccc(NC(=O)Nc3ccc(Cl)c(C(F)(F)F)c3)cc2)ccn1 [Sorafenib] + Cc1nc(Nc2ncc(C(=O)Nc3c(C)cccc3Cl)s2)cc(N2CCN(CCO)CC2)n1 [Dasatinib] (partner 0.075 µM)
In short: (§1)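 Relative viability is defined as nuclei in treated wells over nuclei in vehicle wells. Duplicate plates were run and medians reported. Lung cancer cell lines in 1536-well plates were dosed by pin tool one day after seeding, with one drug or with a fixed anchor-drug dose plus five library-drug doses (not always all listed) in √10 steps, and nuclei were counted after 5 days.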

[2] = compound: CNC(=O)c1cc(Oc2ccc(NC(=O)Nc3ccc(Cl)c(C(F)(F)F)c3)cc2)ccn1 [Sorafenib] + COc1cccc2cc(-c3nc([C@H]4CC[C@H](C(=O)O)CC4)n4ncnc(N)c34)[nH]c12 [OSI-027] (partner 0.5 µM)
In short: as §1

[3] = compound: CNC(=O)c1cc(Oc2ccc(NC(=O)Nc3ccc(Cl)c(C(F)(F)F)c3)cc2)ccn1 [Sorafenib] + N=C(N)NC(=N)NCCc1ccccc1 [Phenformin] (partner 250 µM)
In short: as §1

[4] = compound: CNC(=O)c1cc(Oc2ccc(NC(=O)Nc3ccc(Cl)c(C(F)(F)F)c3)cc2)ccn1 [Sorafenib] + CC(=O)Nc1cccc(-n2c(=O)n(C3CC3)c(=O)c3c(Nc4ccc(I)cc4F)n(C)c(=O)c(C)c32)c1 [Trametinib] (partner 0.02 µM)
In short: as §1

[5] = compound: CNC(=O)c1cc(Oc2ccc(NC(=O)Nc3ccc(Cl)c(C(F)(F)F)c3)cc2)ccn1 [Sorafenib] + CCNC(=O)c1noc(-c2cc(C(C)C)c(O)cc2O)c1-c1ccc(CN2CCOCC2)cc1 [Luminespib] (partner 0.01 µM)
In short: as §1

Cell Line | relative viability ([1]; first compound 0.08 µM) | relative viability ([1]; first compound 0.253 µM) | relative viability ([1]; first compound 2.53 µM) | relative viability ([1]; first compound 8 µM) | relative viability ([2]; first compound 0.253 µM) | relative viability ([2]; first compound 2.53 µM) | relative viability ([2]; first compound 8 µM) | relative viability ([3]; first compound 0.253 µM) | relative viability ([3]; first compound 2.53 µM) | relative viability ([3]; first compound 8 µM) | relative viability ([4]; first compound 0.08 µM) | relative viability ([4]; first compound 0.253 µM) | relative viability ([4]; first compound 2.53 µM) | relative viability ([4]; first compound 8 µM) | relative viability ([5]; first compound 0.08 µM) | relative viability ([5]; first compound 0.253 µM) | relative viability ([5]; first compound 8 µM) | relative viability ([2]; first compound 0.08 µM) | relative viability ([3]; first compound 0.08 µM) | relative viability ([5]; first compound 2.53 µM)
201T | 0.584 | 0.578 | 0.596 | 0.458 | 0.706 | 0.804 | 0.671 | 0.423 | 0.42 | 0.432 | 0.679 | 0.726 | 0.735 | 0.762 | 1.06 | 1.12 | 1.04 | – | – | –
A-427 | 0.75 | 0.671 | – | 0.31 | 0.511 | 0.432 | 0.219 | 0.389 | 0.333 | 0.115 | 0.731 | 0.754 | 0.551 | 0.383 | 0.971 | 0.951 | 0.831 | 0.522 | 0.444 | 0.757
ABC-1 | 0.625 | 0.493 | 0.619 | 0.351 | 0.49 | 0.654 | 0.37 | 0.234 | 0.247 | 0.233 | – | – | – | – | 0.815 | 0.378 | 0.158 | 0.575 | 0.218 | 0.538
BEN | 0.342 | 0.255 | 0.381 | 0.309 | 0.326 | 0.338 | 0.27 | 0.254 | 0.239 | 0.205 | 1.11 | 0.911 | 0.945 | 0.913 | 0.439 | 0.173 | 0.0694 | 0.318 | 0.278 | 0.2
CAL-12T | 0.658 | – | 0.415 | 0.114 | 0.492 | 0.565 | 0.299 | 0.54 | 0.583 | 0.202 | 0.5 | 0.312 | 0.339 | 0.213 | 0.14 | 0.363 | 0.147 | 0.78 | 0.641 | 0.347
COR-L23 | 0.55 | 0.495 | 0.514 | 0.235 | 0.725 | 0.754 | – | 0.419 | 0.455 | 0.287 | 0.645 | 0.433 | 0.312 | 0.232 | 0.731 | 0.688 | 0.135 | 0.874 | 0.44 | 0.525
COR-L 105 | 0.475 | 0.31 | – | 0.356 | 0.735 | 1.05 | 0.677 | 0.458 | 0.561 | 0.441 | 0.51 | 0.472 | 0.432 | 0.378 | 1 | – | 0.623 | 0.816 | 0.534 | 1.05
ChaGo-K-1 | 0.649 | 0.505 | 0.577 | 0.455 | 0.397 | 0.683 | 0.46 | 0.405 | 0.469 | 0.299 | 0.884 | 0.855 | 0.886 | 0.708 | 0.708 | 0.446 | 0.325 | 0.583 | 0.552 | 0.606
EKVX | 0.628 | 0.449 | 0.376 | 0.349 | 0.74 | 0.701 | 0.649 | 0.24 | 0.24 | 0.201 | 0.36 | 0.349 | 0.317 | 0.219 | 0.963 | 0.864 | 0.854 | 0.712 | 0.243 | 0.808
EMC-BAC-2 | 0.301 | 0.268 | 0.354 | 0.299 | 0.358 | 0.391 | 0.358 | 0.464 | 0.507 | 0.316 | 0.86 | – | 0.7 | 0.44 | 1.21 | 1.08 | 0.812 | 0.341 | 0.504 | 1.17
EPLC-272H | 0.479 | 0.341 | 0.402 | 0.254 | 0.296 | 0.273 | 0.269 | 0.264 | 0.294 | 0.315 | 0.298 | 0.274 | 0.27 | 0.205 | 0.26 | 0.303 | 0.335 | 0.314 | 0.402 | 0.263
H3255 | 0.497 | 0.344 | 0.345 | 0.201 | 0.566 | 0.619 | 0.349 | 0.357 | 0.406 | – | 0.619 | 0.563 | 0.463 | 0.364 | 1 | 0.781 | – | 0.634 | 1.02 | 0.925
HARA | 0.296 | 0.197 | 0.248 | 0.229 | 0.5 | 0.619 | 0.257 | 0.456 | 0.41 | 0.307 | 0.626 | – | 0.233 | 0.228 | 0.936 | 0.696 | 0.526 | 0.606 | 0.498 | 0.609
HCC-15 | 0.697 | 0.68 | 0.774 | 0.417 | 0.558 | 0.712 | 0.386 | 0.403 | 0.442 | 0.212 | 0.411 | 0.354 | 0.396 | 0.3 | 0.533 | 0.26 | 0.185 | 0.631 | 0.501 | 0.338
HCC-44 | – | – | – | – | 0.431 | 0.741 | 0.395 | 0.153 | 0.311 | 0.207 | 1.07 | 1.04 | 1.01 | – | 1.09 | 1.01 | 0.992 | 0.552 | 0.269 | 1.02
HCC-78 | 0.46 | 0.393 | 0.549 | 0.397 | 0.304 | 0.431 | 0.384 | 0.598 | – | 0.713 | 0.807 | 0.646 | 0.897 | 0.523 | – | – | – | 0.39 | 0.812 | –
HCC-366 | 0.626 | 0.551 | 0.639 | 0.518 | 0.937 | 0.866 | 0.327 | 0.507 | 0.539 | 0.559 | 0.403 | 0.436 | 0.331 | 0.226 | – | – | – | 0.951 | 0.598 | –
